Converted amounts (≈) assume the structure as drawn.

Holding throughout (format): cell-based, Staphylococcus aureus
For one assay, the system named is Staph aureus 1095 MRSA. The assay is described as follows: MIC, microtiter broth dilution (CLSI M7-A7), Assay 1, Table 12 column A, no serum. Particulars: Assay 1, no serum. In short, it runs like this: (§1)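 Staphylococcus aureus susceptibility is measured by CLSI M7-A7 broth microdilution in microtiter trays. For serum testing, bacteria are inoculated into Mueller-Hinton Broth containing 50% pooled inactivated human serum. The MIC in μg/ml is the lowest concentration preventing visible growth.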
In general terms: Dilution methods test growth across graded concentrations, often in twofold steps.

Assay [1] relates to Staph aureus 1146. The assay is described as follows: MIC, microtiter broth dilution (CLSI M7-A7), Assay 1, Table 12 column B, no serum. In short, it runs like this:
as §1

In assay [2] the test system is Staph aureus 1146. Nature of the assay: MIC in Mueller-Hinton Broth with 50% pooled inactivated human serum, Assay 1, Table 12. In short, it runs like this: as §1
A further assay concerns Staph aureus 2811. The assay is described as follows: MIC, microtiter broth dilution (CLSI M7-A7), Assay 1, Table 12 column D, no serum. The procedure, abridged:
as §1

The test system of another assay is Staph aureus 2812. The assay is described as follows: MIC, microtiter broth dilution (CLSI M7-A7), Assay 1, Table 12 column E, no serum. The procedure, abridged: as §1
The test system of assay [3] is Staph aureus 1031. Nature of the assay: MIC, microtiter broth dilution (CLSI M7-A7), Assay 2, Table 12 column F, no serum. Here is the method: (§2) The assays described herein include a panel of bacterial isolates of Staphylococcus aureus. Assay 1 comprises the strains noted in Columns A through E, and Assay 2 comprises the strains noted in Columns F through H. The assays are performed in microtiter trays according to Methods for Dilution Antimicrobial Susceptibility Tests for Bacteria that Grow Aerobically; Approved Standard-7th edition (M7-A7) and interpreted according to the Performance Standards for Antimicrobial Susceptibility Testing; 16th Informational Supplement (M100-S16) published by Clinical Laboratory Standards Institute (CLSI). The antibacterial activity is presented in the form of a minimum inhibitory concentration (MIC) value in μg/ml format. The MIC value represents the lowest concentration of drug measured which prevented macroscopically visible growth under the conditions and specific doses tested. The compounds were initially dissolved in DMSO as 30 mM stocks and diluted accordingly to adjust to a concentration of 10 mg/ml or the compounds were dissolved in DMSO at a concentration of 10 mg/ml. For assessment of activity in the presence of human serum, S. aureus 1146 and S. aureus 1031 were inoculated into Mueller-Hinton Broth with 50% pooled inactivated human serum. In some cases, compounds were tested more than once in a particular assay. Where noted, the MIC value shown in Table 12 represents the geometric mean of the data from multiple runs.
(§3) It should be understood that the data in columns A-H represents MIC data in μg/ml and the notation “<=” means ‘less than or equal to’.

Assay [4] relates to Staph aureus 1031. The assay is described as follows: MIC in Mueller-Hinton Broth with 50% pooled inactivated human serum, Assay 2, Table 12 column G. Here is the method:
as §2, §3

The next assay has as its system Staph aureus 2810. Nature of the assay: MIC, microtiter broth dilution (CLSI M7-A7), Assay 2, Table 12 column H, no serum. How it is done:
as §2, §3

As for `COC(=O)[C@H]1CN(C[C@@H]2C[C@H]2c2ccccc2)CC[C@H]1CCC(O)c1ccnc2ccc(OC)cc12` (mixture of isomers) [Example 5, methyl (3R,4R)-4-[3-hydroxy-3-(6-methoxyquinolin-4-yl)propyl]-1-{[(trans)-2-phenylcyclopropyl]methyl}piperidine-3-carboxylate], the minimum inhibitory concentration (MIC) (usually the lowest concentration that inhibits growth of the organism) against Staph aureus 1095 MRSA (Staphylococcus aureus, MRSA) turned out to be 2 µg/mL; with Staph aureus 1146 [1] (Staphylococcus aureus, 1146, Staph aureus 1146, Assay 1, no serum) it was 4 µg/mL; in the assay with Staph aureus 1146 [2] (Staphylococcus aureus, 1146, Staph aureus 1146, Assay 1, 50% human serum, read-out: MIC, column C) it was 32 µg/mL; against Staph aureus 2811 (Staphylococcus aureus, 2811, Staph aureus 2811, Assay 1, no serum), 8 µg/mL; with Staph aureus 2812 (Staphylococcus aureus, 2812, Staph aureus 2812, Assay 1, no serum), 4 µg/mL; against Staph aureus 1031 [3] (Staphylococcus aureus, 1031, Staph aureus 1031, Assay 2, no serum) it was 4 µg/mL. Besides, the minimum inhibitory concentration (MIC) against Staph aureus 1031 [4] (Staphylococcus aureus, 1031, Staph aureus 1031, Assay 2, 50% human serum) was determined as 64 µg/mL; with Staph aureus 2810 (Staphylococcus aureus, 2810, Staph aureus 2810, Assay 2, no serum), 8 µg/mL.
For the compound `COc1ccc2nccc(C(O)CC[C@@H]3CCN(C4CC(c5ccccc5)C4)C[C@@H]3C(=O)O)c2c1` (single isomer, unassigned) [Example 3], the “MIC, column A” value against Staph aureus 1095 MRSA worked out at 0.25 µg/mL (≈ 0.527 µM). Moreover, the “MIC, column B” value in the assay on Staph aureus 1146 [1] (Staph aureus 1146, Assay 1, no serum) is “<=.1768 μg/ml”. Further, the “MIC, column C” value in the assay with Staph aureus 1146 [2] (Staph aureus 1146, Assay 1, 50% human serum) came to 1.7818 µg/mL (≈ 3.75 µM). Moreover, the “MIC, column D” value with Staph aureus 2811 (Staph aureus 2811, Assay 1, no serum) is “<=.25 μg/ml”. Further, the “MIC, column E” value with Staph aureus 2812 (Staph aureus 2812, Assay 1, no serum) was 0.25 µg/mL (≈ 0.527 µM). For the same compound, the “MIC, column F” value against Staph aureus 1031 [3] (Staph aureus 1031, Assay 2, no serum) was 0.5 µg/mL (≈ 1.05 µM). The “MIC, column G” value with Staph aureus 1031 [4] (Staph aureus 1031, Assay 2, 50% human serum) stood at 4 µg/mL (≈ 8.43 µM). In the assay on Staph aureus 2810 (Staph aureus 2810, Assay 2, no serum), the “MIC, column H” value was determined as 0.5 µg/mL (≈ 1.05 µM).

These data come from patent publication US20080280879A1, “SUBSTITUTED HETEROCYCLIC DERIVATIVES AND THEIR PHARMACEUTICAL USE AND COMPOSITIONS” (priority 2007, published 2008).
